Several values for one entry are separate records, joined by “and”; a condition that tells them apart may be missing. Identical values can stand only once.
Experiments:
[1] = test system: IGR37; assay: scRNA-seq of melanoma cell line before and after treatment with abemaciclib for 1 week; assay type: cell-based, human; details: IGR37 (RB1-sufficient); abemaciclib 1 week; 10% prior to treatment
Source text: (§1) To determine this effect in melanoma, Applicants identified melanoma cell lines in the Cancer Cell Line Encyclopedia (CCLE) with the strongest expression of the uICR signature, including IGR37, UACC257 (both RB-sufficient) and A2058 (RB-deficient). Applicants performed scRNA-seq on these cell lines before and after treatment with abemaciclib for 1 week (FIG. 41). In both IGR37 and UACC257, Applicants saw a decrease in the expression of the uICR state (P<3.59*10^−34, one-sided t-test). […] This population decreased from 10% before treatment (2,454 cells) to 2% in the post-treatment condition (1,570 cells).
(§2) To test this hypothesis, Applicants studied the effect of abemaciclib on the immune resistance program in melanoma cell lines. […] Applicants profiled each cell line with scRNA-seq before and after treatment with abemaciclib for 1 week (FIGS. 49D-E), analyzing over 23,000 cells in these and follow-up conditions (below). […]
(§3) Established melanoma cell lines […] and A2058 were acquired from the Cancer Cell Line Encyclopedia (CCLE) from the Broad Institute. […] Cells were lifted off culture dishes using Versene solution (Life Technologies), washed twice in 1×PBS, counted and resuspended in PBS supplemented with 0.04% BSA for loading for scRNA-seq with the 10X Genomics platform.

[2] = test system: UACC257; assay: as above; assay type: cell-based, human; details: UACC257 (RB1-sufficient); abemaciclib 1 week; 10% prior to treatment
Source text: as §1, §2, §3

[3] = test system: human melanoma cells (Melanoma cell line 2686); assay: Abemaciclib doubling time and cytostatic effect; assay type: cell-based; details: abemaciclib 500 nM
Method: Cell number and viability were determined using the Countess™ II FL Automated Cell Counter (ThermoFisher) on days 2, 4 and 6. All experiments were performed in triplicates. Cell doubling per 24 hours was determined based on cell numbers comparing cells seeded and on day 6 using the following formula: duration (in days) x log(2)/log(final cell number) - log(initial cell number).

[4] = test system: melanoma cells; assay: Measurement of 40 human cytokines/chemokines in conditioned media of abemaciclib or DMSO treated cancer cells

CCN1CCN(Cc2ccc(Nc3ncc(F)c(-c4cc(F)c5nc(C)n(C(C)C)c5c4)n3)nc2)CC1 [abemaciclib]
fraction of cells with exceptionally strong expression of the immune resistance (uICR) program ("immune resistant" cells) post-treatment [1]: 2%
fraction of cells with exceptionally strong expression of the immune resistance program ("immune resistant" cells) post-treatment [2]: 1% and 0.6%
cytotoxic effects [3]: do not find significant cytotoxic effects
rate of proliferation ([3]; DMSO 0.64): 0.3 doublings/24 hrs
Fold change (abemaciclib vs. DMSO treatment) ([4]; Hu 6Ckine/CCL21): 0.9700
Fold change (abemaciclib vs. DMSO treatment) ([4]; Hu CTACK/CCL27): 1.0834
Fold change (abemaciclib vs. DMSO treatment) ([4]; Hu ENA-78/CXCL5): 1.0188
Fold change (abemaciclib vs. DMSO treatment) ([4]; Hu Eotaxin-3/CCL26): 3.0279
Fold change (abemaciclib vs. DMSO treatment) ([4]; Hu Eotaxin/CCL11): 0.9599
Fold change (abemaciclib vs. DMSO treatment) ([4]; Hu Fractalkine/CX3CL1): 2.1863
Fold change (abemaciclib vs. DMSO treatment) ([4]; Hu GCP-2/CXCL6): 0.6386
Fold change (abemaciclib vs. DMSO treatment) ([4]; Hu GM-CSF): 1.0191
Fold change (abemaciclib vs. DMSO treatment) ([4]; Hu Gro-a/CXCL1): 0.9135
Fold change (abemaciclib vs. DMSO treatment) ([4]; Hu Gro-b/CXCL2): 0.7471
Fold change (abemaciclib vs. DMSO treatment) ([4]; Hu I-309/CCL1): 1.0389
Fold change (abemaciclib vs. DMSO treatment) ([4]; Hu I-TAC/CXCL11): 0.9524
Fold change (abemaciclib vs. DMSO treatment) ([4]; Hu IL-1b): 1.0719
Fold change (abemaciclib vs. DMSO treatment) ([4]; Hu IL-2): 0.5882
Fold change (abemaciclib vs. DMSO treatment) ([4]; Hu IL-4): 1.6605
Fold change (abemaciclib vs. DMSO treatment) ([4]; Hu IL-6): 0.3788
Fold change (abemaciclib vs. DMSO treatment) ([4]; Hu IL-8): 0.7253
Fold change (abemaciclib vs. DMSO treatment) ([4]; Hu IL-10): 1.0079
Fold change (abemaciclib vs. DMSO treatment) ([4]; Hu IL-16): 0.8482
Fold change (abemaciclib vs. DMSO treatment) ([4]; Hu IP-10/CXCL10): 0.9103
Fold change (abemaciclib vs. DMSO treatment) ([4]; Hu MCP-1/CCL2): 0.7175
Fold change (abemaciclib vs. DMSO treatment) ([4]; Hu MCP-2/CCL8): 1.0388
Fold change (abemaciclib vs. DMSO treatment) ([4]; Hu MCP-3/CCL7): 1.0422
Fold change (abemaciclib vs. DMSO treatment) ([4]; Hu MCP-4/CCL13): 0.8887
Fold change (abemaciclib vs. DMSO treatment) ([4]; Hu MDC/CCL22): 1.1142
Fold change (abemaciclib vs. DMSO treatment) ([4]; Hu MIF): 2.9587
Fold change (abemaciclib vs. DMSO treatment) ([4]; Hu MIP-1a/CCL3): 1.0350
Fold change (abemaciclib vs. DMSO treatment) ([4]; Hu MIP-3a/CCL20): 3.4000
Fold change (abemaciclib vs. DMSO treatment) ([4]; Hu MIP-3b/CCL19): 0.8717
Fold change (abemaciclib vs. DMSO treatment) ([4]; Hu MIP-1d/CCL15): 1.0809
Fold change (abemaciclib vs. DMSO treatment) ([4]; Hu SCYB16/CXCL16): 1.1278
Fold change (abemaciclib vs. DMSO treatment) ([4]; Hu SDF1a + b/CXCL12): 0.8885
Fold change (abemaciclib vs. DMSO treatment) ([4]; Hu TARC/CCL17): 1.0104
Fold change (abemaciclib vs. DMSO treatment) ([4]; Hu TECK/CCL25): 1.5510
Fold change (abemaciclib vs. DMSO treatment) ([4]; Hu TNF-a): 0.7465
